The source made the active and inactive calls. The calls are words filed in the database; no cut-off is given here.
Tests used:
[1] = target: Apoptosis regulator Bcl-2 (Homo sapiens, UniProt P10415); experiment: Time-resolved fluorescence energy transfer (TR-FRET) with BCL2
[2] = target: Acetylcholinesterase (Homo sapiens) (UniProt P22303); experiment: Acetylcholinesterase (h) Eurofins-Cerep enzyme and uptake assay; conditions: Compound concentration 10.0 uM
[3] = target: Kappa-type opioid receptor (Homo sapiens) (UniProt P41145); experiment: kappa (h) (KOP) Eurofins-Cerep binding assay; design: ligand concentration 0.5 nM; conditions: filed as agonist, Compound concentration 10.0 uM
[4] = target: T1, 5-hydroxytryptamine receptor 3A (Homo sapiens) (UniProt P46098); experiment: 5-HT3 (h) Eurofins-Cerep binding assay; design: ligand concentration 0.5 nM; conditions: filed as antagonist, Compound concentration 10.0 uM
T1 sequence (whole entry): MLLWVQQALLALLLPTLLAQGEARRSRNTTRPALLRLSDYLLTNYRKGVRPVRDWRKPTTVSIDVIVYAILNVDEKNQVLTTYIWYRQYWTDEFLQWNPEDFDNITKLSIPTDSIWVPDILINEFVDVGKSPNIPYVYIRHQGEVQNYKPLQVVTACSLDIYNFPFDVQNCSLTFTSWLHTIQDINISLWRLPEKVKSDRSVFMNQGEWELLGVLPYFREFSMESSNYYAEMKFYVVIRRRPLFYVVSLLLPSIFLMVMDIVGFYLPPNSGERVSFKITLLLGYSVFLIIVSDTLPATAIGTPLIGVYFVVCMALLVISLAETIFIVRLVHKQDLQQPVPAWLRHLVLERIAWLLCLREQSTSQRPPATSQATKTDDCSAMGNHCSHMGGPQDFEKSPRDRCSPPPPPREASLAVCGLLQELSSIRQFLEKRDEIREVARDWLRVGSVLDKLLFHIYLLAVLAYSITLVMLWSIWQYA

[5] = target: Sodium-dependent noradrenaline transporter (Homo sapiens) (UniProt P23975); experiment: norepinephrine transporter (h) Eurofins-Cerep binding assay; design: ligand concentration 1 nM; conditions: filed as antagonist, Compound concentration 10.0 uM
[6] = tested on: Tyrosine-protein kinase ABL1 (Homo sapiens), P00519 [H396P]; conditions: Compound concentration 1000.0 nM
[7] = target: Tyrosine-protein kinase ABL2 (Homo sapiens) (UniProt P42684); conditions: Compound concentration 1000.0 nM
[8] = tested on: ALK tyrosine kinase receptor (Homo sapiens), Q9UM73 [C1156Y]; conditions: Compound concentration 1000.0 nM
[9] = target: Tyrosine-protein kinase receptor UFO (Homo sapiens) (UniProt P30530); conditions: Compound concentration 1000.0 nM
[10] = tested on: Serine/threonine-protein kinase B-raf (Homo sapiens), P15056 [V600E]; conditions: Compound concentration 1000.0 nM
[11] = target: Calcium/calmodulin-dependent protein kinase type II subunit alpha (Homo sapiens) (UniProt Q9UQM7); conditions: Compound concentration 1000.0 nM
[12] = target: Calcium/calmodulin-dependent protein kinase type IV (Homo sapiens) (UniProt Q16566); conditions: Compound concentration 1000.0 nM
[13] = target: Cyclin-dependent kinase 4 (Homo sapiens) (UniProt P11802); conditions: Compound concentration 1000.0 nM
[14] = target: Macrophage colony-stimulating factor 1 receptor (Homo sapiens) (UniProt P07333); conditions: Compound concentration 1000.0 nM
[15] = target: Casein kinase I isoform alpha-like (Homo sapiens) (UniProt Q8N752); conditions: Compound concentration 1000.0 nM
[16] = target: Mitogen-activated protein kinase kinase kinase 12 (Homo sapiens) (UniProt Q12852); conditions: Compound concentration 1000.0 nM
[17] = target: Serine/threonine-protein kinase 17A (Homo sapiens) (UniProt Q9UEE5); conditions: Compound concentration 1000.0 nM
[18] = tested on: Epidermal growth factor receptor (Homo sapiens), P00533 [UNDEFINED MUTATION]; conditions: Compound concentration 1000.0 nM
[19] = tested on: Epidermal growth factor receptor (Homo sapiens), P00533 [T790M]; conditions: Compound concentration 1000.0 nM
[20] = target: Ephrin type-A receptor 2 (Homo sapiens) (UniProt P29317); conditions: Compound concentration 1000.0 nM
[21] = target: Ephrin type-A receptor 7 (Homo sapiens) (UniProt Q15375); conditions: Compound concentration 1000.0 nM
[22] = target: Vascular endothelial growth factor receptor 1 (Homo sapiens) (UniProt P17948); conditions: Compound concentration 1000.0 nM
[23] = tested on: Receptor-type tyrosine-protein kinase FLT3 (Homo sapiens), P36888 [N841I]; conditions: Compound concentration 1000.0 nM
[24] = target: Tyrosine-protein kinase HCK (Homo sapiens) (UniProt P08631); conditions: Compound concentration 1000.0 nM
[25] = target: Mast/stem cell growth factor receptor Kit (Homo sapiens) (UniProt P10721); conditions: Compound concentration 1000.0 nM
[26] = target: MAP kinase-activated protein kinase 5 (Homo sapiens) (UniProt Q8IW41); conditions: Compound concentration 1000.0 nM
[27] = target: Serine/threonine-protein kinase Nek7 (Homo sapiens) (UniProt Q8TDX7); conditions: Compound concentration 1000.0 nM
[28] = target: Mitogen-activated protein kinase 14 (Homo sapiens) (UniProt Q16539); conditions: Compound concentration 1000.0 nM
[29] = target: Serine/threonine-protein kinase PAK 3 (Homo sapiens) (UniProt O75914); conditions: Compound concentration 1000.0 nM
[30] = target: Cyclin-dependent kinase 17 (Homo sapiens) (UniProt Q00537); conditions: Compound concentration 1000.0 nM
[31] = target: Platelet-derived growth factor receptor beta (Homo sapiens) (UniProt P09619); conditions: Compound concentration 1000.0 nM
[32] = target: Phosphatidylinositol 4,5-bisphosphate 3-kinase catalytic subunit delta isoform (Homo sapiens) (UniProt O00329); conditions: Compound concentration 1000.0 nM
[33] = target: Serine/threonine-protein kinase PknB (Mycobacterium tuberculosis) (UniProt P9WI81); conditions: Compound concentration 1000.0 nM
[34] = target: Serine/threonine-protein kinase TAO3 (Homo sapiens) (UniProt Q9H2K8); conditions: Compound concentration 1000.0 nM
[35] = target: Angiopoietin-1 receptor (Homo sapiens) (UniProt Q02763); conditions: Compound concentration 1000.0 nM
[36] = target: T1, 5-hydroxytryptamine receptor 3A (Homo sapiens); conditions: Compound concentration 10.0 uM
[37] = target: GABA-A receptor; anion channel (Rattus norvegicus) (UniProt O09028+P15431+P18506+P18508+P19969+P20236+P23574+P23576+P28471+P28473+P30191+P62813+P63079+P63138+Q91ZM7+Q9ES14); conditions: Compound concentration 10.0 uM

Sequence of Serine/threonine-protein kinase PknB (Mycobacterium tuberculosis) (P9WI81 whole entry): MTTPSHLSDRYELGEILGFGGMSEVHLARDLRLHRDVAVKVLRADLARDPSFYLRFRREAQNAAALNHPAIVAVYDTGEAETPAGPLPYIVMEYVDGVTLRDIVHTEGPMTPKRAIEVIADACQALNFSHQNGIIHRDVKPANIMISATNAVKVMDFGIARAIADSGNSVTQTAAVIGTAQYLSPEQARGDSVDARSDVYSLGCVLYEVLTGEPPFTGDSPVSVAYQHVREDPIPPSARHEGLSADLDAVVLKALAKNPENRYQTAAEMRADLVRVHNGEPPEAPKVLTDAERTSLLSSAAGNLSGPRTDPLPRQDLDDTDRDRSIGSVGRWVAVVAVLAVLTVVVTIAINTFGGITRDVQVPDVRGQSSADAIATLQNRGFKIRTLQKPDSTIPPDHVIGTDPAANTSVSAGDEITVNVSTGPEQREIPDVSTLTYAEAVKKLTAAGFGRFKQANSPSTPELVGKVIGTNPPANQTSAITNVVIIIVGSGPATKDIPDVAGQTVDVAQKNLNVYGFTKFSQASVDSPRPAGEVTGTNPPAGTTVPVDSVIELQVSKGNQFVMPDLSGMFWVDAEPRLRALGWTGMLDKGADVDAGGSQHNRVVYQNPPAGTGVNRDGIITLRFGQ
Sequence of MAP kinase-activated protein kinase 5 (Homo sapiens) (Q8IW41 whole entry): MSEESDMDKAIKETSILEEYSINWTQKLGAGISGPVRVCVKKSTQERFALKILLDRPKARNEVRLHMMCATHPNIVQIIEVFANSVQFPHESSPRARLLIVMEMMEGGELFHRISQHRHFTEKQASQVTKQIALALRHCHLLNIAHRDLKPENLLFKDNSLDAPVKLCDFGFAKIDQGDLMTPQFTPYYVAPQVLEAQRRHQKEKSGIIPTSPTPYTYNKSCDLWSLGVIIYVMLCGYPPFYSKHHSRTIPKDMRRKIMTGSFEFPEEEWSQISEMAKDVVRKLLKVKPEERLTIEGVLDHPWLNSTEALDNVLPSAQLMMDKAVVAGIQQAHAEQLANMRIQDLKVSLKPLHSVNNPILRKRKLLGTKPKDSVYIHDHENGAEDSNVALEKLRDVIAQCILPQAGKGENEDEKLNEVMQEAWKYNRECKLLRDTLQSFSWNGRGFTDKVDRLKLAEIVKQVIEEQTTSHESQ
Sequence of Macrophage colony-stimulating factor 1 receptor (Homo sapiens) (P07333 whole entry, canonical isoform): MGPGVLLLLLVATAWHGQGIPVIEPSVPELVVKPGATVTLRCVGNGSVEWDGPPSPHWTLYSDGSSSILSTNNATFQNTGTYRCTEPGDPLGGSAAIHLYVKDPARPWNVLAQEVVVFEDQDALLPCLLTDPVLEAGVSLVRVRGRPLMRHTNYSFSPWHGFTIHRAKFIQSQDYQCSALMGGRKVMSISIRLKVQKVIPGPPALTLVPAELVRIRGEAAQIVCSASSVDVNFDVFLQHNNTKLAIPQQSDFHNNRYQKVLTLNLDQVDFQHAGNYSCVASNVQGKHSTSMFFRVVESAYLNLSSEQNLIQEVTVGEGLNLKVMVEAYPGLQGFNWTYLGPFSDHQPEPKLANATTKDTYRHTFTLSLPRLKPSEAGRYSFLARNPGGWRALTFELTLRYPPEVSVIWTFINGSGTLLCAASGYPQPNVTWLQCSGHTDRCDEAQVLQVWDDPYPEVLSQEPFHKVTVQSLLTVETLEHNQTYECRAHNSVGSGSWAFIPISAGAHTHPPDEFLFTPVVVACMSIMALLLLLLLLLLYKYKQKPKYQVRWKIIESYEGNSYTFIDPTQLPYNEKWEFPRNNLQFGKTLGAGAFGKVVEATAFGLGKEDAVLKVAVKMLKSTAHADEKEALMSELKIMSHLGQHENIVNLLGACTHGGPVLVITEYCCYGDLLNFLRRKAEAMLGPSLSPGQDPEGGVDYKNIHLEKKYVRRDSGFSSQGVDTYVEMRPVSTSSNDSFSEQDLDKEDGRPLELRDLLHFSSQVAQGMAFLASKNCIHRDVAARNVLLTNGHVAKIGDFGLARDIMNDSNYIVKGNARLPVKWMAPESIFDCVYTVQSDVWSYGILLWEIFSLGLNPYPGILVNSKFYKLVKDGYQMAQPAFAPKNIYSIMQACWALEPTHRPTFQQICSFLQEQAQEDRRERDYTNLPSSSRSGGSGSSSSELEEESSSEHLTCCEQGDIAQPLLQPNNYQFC
Sequence of Serine/threonine-protein kinase TAO3 (Homo sapiens) (Q9H2K8 whole entry): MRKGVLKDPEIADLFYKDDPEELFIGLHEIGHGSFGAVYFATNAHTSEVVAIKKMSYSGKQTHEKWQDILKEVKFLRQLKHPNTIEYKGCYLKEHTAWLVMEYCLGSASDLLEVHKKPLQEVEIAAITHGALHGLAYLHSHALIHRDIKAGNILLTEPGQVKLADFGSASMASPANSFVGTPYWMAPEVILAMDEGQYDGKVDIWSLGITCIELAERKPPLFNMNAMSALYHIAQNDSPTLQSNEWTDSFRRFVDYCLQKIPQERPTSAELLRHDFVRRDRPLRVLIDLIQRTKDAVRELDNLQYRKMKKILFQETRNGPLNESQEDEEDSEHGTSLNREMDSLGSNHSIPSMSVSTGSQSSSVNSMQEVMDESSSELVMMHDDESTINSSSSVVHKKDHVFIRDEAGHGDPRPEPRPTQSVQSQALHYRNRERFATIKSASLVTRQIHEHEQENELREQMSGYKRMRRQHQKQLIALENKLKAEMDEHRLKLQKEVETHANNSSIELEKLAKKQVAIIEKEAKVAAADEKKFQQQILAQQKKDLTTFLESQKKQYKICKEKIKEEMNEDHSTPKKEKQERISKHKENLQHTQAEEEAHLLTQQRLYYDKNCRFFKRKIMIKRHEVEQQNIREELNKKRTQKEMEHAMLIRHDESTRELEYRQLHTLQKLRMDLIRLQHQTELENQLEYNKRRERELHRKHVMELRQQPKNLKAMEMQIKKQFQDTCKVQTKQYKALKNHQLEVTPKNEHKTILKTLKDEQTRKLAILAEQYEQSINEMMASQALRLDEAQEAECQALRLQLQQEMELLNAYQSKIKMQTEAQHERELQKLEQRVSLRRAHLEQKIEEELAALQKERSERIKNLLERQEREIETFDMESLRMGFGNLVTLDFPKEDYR
Sequence of Tyrosine-protein kinase HCK (Homo sapiens) (P08631 2-526 limits assumed): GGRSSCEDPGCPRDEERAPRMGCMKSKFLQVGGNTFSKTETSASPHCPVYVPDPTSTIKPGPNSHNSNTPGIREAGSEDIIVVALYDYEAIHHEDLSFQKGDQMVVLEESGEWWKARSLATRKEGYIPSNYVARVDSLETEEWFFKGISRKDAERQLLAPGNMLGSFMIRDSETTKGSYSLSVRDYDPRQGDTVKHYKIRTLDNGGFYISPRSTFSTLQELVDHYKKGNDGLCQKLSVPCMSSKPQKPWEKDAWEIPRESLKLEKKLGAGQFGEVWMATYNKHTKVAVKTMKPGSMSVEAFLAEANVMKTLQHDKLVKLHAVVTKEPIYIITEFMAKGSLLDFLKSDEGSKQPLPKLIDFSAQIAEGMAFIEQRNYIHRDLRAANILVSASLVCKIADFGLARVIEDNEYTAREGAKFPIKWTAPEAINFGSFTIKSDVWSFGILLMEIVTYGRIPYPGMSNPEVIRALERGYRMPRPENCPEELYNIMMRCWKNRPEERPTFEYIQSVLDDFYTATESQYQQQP
Sequence of Ephrin type-A receptor 2 (Homo sapiens) (P29317 whole entry): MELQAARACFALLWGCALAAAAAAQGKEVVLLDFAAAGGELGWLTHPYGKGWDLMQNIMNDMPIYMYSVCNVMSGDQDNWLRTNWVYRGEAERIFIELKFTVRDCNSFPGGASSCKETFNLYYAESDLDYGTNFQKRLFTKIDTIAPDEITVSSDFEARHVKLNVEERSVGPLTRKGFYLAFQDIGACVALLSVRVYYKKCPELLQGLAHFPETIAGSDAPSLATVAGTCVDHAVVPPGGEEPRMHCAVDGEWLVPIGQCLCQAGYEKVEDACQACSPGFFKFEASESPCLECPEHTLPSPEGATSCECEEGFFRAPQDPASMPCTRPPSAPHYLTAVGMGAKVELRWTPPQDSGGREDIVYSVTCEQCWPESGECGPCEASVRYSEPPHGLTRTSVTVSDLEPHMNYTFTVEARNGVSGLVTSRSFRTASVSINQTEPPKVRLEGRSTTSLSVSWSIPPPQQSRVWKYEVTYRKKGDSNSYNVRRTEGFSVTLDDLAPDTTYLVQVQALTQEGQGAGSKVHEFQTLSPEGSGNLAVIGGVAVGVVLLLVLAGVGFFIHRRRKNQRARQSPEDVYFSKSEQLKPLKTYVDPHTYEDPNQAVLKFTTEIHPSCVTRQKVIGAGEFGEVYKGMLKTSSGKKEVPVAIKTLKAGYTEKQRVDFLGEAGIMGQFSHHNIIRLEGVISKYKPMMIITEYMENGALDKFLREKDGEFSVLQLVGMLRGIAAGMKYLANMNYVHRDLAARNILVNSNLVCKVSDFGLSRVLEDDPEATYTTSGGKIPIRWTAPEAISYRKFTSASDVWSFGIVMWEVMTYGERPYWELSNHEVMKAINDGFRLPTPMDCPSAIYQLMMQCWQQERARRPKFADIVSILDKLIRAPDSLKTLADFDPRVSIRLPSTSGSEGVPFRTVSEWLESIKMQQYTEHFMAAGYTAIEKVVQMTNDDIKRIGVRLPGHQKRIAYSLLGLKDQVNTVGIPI
Sequence of Casein kinase I isoform alpha-like (Homo sapiens) (Q8N752 whole entry, canonical isoform): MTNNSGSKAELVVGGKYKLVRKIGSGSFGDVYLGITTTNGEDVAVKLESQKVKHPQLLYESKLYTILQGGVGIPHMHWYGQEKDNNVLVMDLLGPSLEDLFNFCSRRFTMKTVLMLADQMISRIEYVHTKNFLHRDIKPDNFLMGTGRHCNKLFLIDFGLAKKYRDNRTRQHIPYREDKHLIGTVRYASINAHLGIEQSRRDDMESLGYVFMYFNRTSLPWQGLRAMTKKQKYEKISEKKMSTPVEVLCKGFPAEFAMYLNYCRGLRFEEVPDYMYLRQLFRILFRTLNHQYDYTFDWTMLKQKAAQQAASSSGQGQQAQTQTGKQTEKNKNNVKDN
Sequence of Apoptosis regulator Bcl-2 (P10415 whole entry): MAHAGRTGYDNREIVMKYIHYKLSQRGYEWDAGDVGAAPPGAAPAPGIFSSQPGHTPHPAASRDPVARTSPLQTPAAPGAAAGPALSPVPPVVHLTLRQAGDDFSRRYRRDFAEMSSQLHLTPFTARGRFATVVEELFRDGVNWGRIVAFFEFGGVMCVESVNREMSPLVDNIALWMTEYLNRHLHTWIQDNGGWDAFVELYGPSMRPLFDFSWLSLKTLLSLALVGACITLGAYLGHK

SMILES | IC50 [1] | % Inhibition of Control Values (Mean n=2) [2] [%] | % Inhibition of Control Specific Binding (Mean n=2) [3] [%] | % Inhibition of Control Specific Binding (Mean n=2) [4] [%] | % Inhibition of Control Specific Binding (Mean n=2) [5] [%] | residual activity [6] [%] | residual activity [7] [%] | residual activity [8] [%] | residual activity [9] [%] | residual activity [10] [%] | residual activity [11] [%] | residual activity [12] [%] | residual activity [13] [%] | residual activity [14] [%] | residual activity [15] [%] | residual activity [16] [%] | residual activity [17] [%] | residual activity [18] [%] | residual activity [19] [%] | residual activity [20] [%] | also measured
O=C(NS(=O)(=O)c1ccc(NCC2CCOCC2)c([N+](=O)[O-])c1)c1ccc(N2CCN(Cc3ccc(C(F)(F)F)cc3-c3ccc(Cl)cc3)CC2)cc1Oc1cnc2[nH]ccc2c1 [A-1210227] | 296 nM (not active) | 11 | 23.2 | 0.2 | -14.5 | 94 | 100 | 100 | 88 | 83 | 87 | 100 | 100 | 100 | 100 | 100 | 100 | 88 | 98 | 92 | residual activity [21]: 88%; residual activity [22]: 100%; residual activity [23]: 100%; residual activity [24]: 99%; residual activity [25]: 100%; residual activity [26]: 81%; residual activity [27]: 97%; residual activity [28]: 97%; residual activity [29]: 77%; residual activity [30]: 100%; residual activity [31]: 100%; residual activity [32]: 60%; residual activity [33]: 90%; residual activity [34]: 86%; residual activity [35]: 80%; inhibition [36]: 8.67%; inhibition [37]: 14.5%
CO[C@H]1CC[C@H](CNc2ccc(S(=O)(=O)NC(=O)c3ccc(N4CCN(CC5=C(c6ccc(Cl)cc6)CC(C)(C)CC5)CC4)cc3Oc3cnc4[nH]ccc4c3)cc2[N+](=O)[O-])CC1 [A-1211212] | 1.4 nM (active) | 3.2 | 1.1 | -6.1 | 16.2 | 92 | 81 | 100 | 94 | 93 | 68 | 100 | 100 | 86 | 85 | 100 | 88 | 65 | 98 | 100 | residual activity [21]: 87%; residual activity [22]: 85%; residual activity [23]: 100%; residual activity [24]: 71%; residual activity [25]: 100%; residual activity [26]: 82%; residual activity [27]: 82%; residual activity [28]: 83%; residual activity [29]: 64%; residual activity [30]: 99%; residual activity [31]: 99%; residual activity [32]: 75%; residual activity [33]: 86%; residual activity [34]: 87%; residual activity [35]: 69%; inhibition [36]: 7.56%; inhibition [37]: 19%
